How the values were obtained:
[1] = Determination of the maximum tolerated dose (MTD); settings: mouse, in vivo, ip; B6D2F1/Jico mice, single intraperitoneal administration, survival over 14 days, doses 2.5 to 160 mg/kg; read-out: DMT (mg/kg) (Maximum Tolerated Doses)
Experimental: (§1) 2—Determination of the Maximum Tolerated Dose (MTD)
(§2) The evaluation of the maximum tolerated dose was carried out on B6D2F1/Jico mice aged from 4 to 6 weeks. The compounds were administered intraperitoneally at increasing doses ranging from 2.5 to 160 mg/kg. The value of the MTD (expressed in mg/kg) is determined from the observation of the survival rates of the animals over a period of 14 days after a single administration of the product under consideration. The change in the weight of the animals is also monitored over this period. When that the value of the MTD is greater than 160 mg/kg, the value of the MTD is categorized as 160 mg/kg by default.

[2] = tested on: HS-MXT tumours; experiment: In vivo antitumour activity, hormone-sensitive mouse mammary adenocarcinoma MXT (HS-MXT), tumour growth; settings: 5 mg/kg intraperitoneally; for Tumour area (expressed as %): decrease (−) or increase (+) in HS-MXT tumour area vs control on the 31st day after grafting, 9 administrations
Experimental: The tests were carried out on models of:
hormone-sensitive mouse mammary adenocarcinoma MXT (HS-MXT),
The model of mouse mammary adenocarcinoma MXT of Watson C. et al. (Cancer Res., 1977; […]: 3344-48), grafted onto B6D2F1/Jico mice aged from 4 to 6 weeks, is derived from the mammary gland milk ducts. Initially hormone-sensitive (HS-MXT model), the differentiated tumour develops in the direction of an undifferentiated hormone-insensitive tumour (HI-MXT model). […] This is the case, for example, with cyclophosphamide, etoposide or adriamycin.
(§3) When the MTD value of a product was determined, its in vivo antitumour activity was characterized at the MTD/2, MTD/4 and MTD/8 doses on the models of mammary adenocarcinoma of mouse origin HS-MXT and of mouse mammary carcinoma HI-MXT and on the model of subcutaneous lymphoma L 1210.
(§4) In all the examples presented below, whatever the model, the control condition is represented by a batch of 9 or 15 mice to which is administered, for 3 consecutive weeks and at the rate of 3 administrations (Monday, Wednesday and Friday) per week, a volume of 0.2 ml of physiological saline comprising the solvent used to dissolve the various compounds of formula (I) and (Ia) used.
i)—The tumour growth was evaluated by measuring twice weekly (Monday and Friday) the area of the grafted HS-MXT, HI-MXT or L 1210 tumours. This area is calculated by multiplying the value of the two greatest perpendicular axes of the tumour. The value of these axes is measured using a sliding caliper.
The influence of the two products CRL 8293 and CRL 8294 on the growth of HS-MXT tumours will be presented below by way of example. Each batch of mice grafted with the HS-MXT tumours relating to a given experimental condition comprises 9 animals.
The product CRL 8293 is administered intraperitoneally. The first injection of the product is carried out on the seventh day postgrafting (D7) at the rate of 3 injections per week (Monday, Wednesday and Friday) for 3 consecutive weeks and at a dose of 5 mg/kg.
The product CRL 8294 is administered alone by the intraperitoneal route. The first injection of the product is carried out on the seventh day postgrafting (D7) at the rate of 3 injections per week (Monday, Wednesday and Friday) for 3 consecutive weeks and at a dose of 5 mg/kg.
The decreases (−) or the increases (+) in the area of the HS-MXT tumours induced with treatments 10 and 20 with respect to the control condition on the 31st day after the tumour grafting, i.e. after the 9 administrations provided in the experimental protocol of the 2 products CRL 8293 and CRL 8294, are shown, as percentage, in the following Table IV. 100% of the control animals are still alive on the 31st day postgrafting.

[3] = tested on: B6D2F1/Jico mice; experiment: Determination of the maximum tolerated dose (MTD); settings: mouse, in vivo, ip
Experimental: as §1, §2

[4] = tested on: lymphoma L 1210; experiment: In vivo antitumour activity, subcutaneous lymphoma L 1210, survival (T/C); parameters: species or system mouse
Experimental: The model of lymophoma L 1210 is a model of L 1210 leukemia cells of mouse origin grafted subcutaneously in the mouse. They give rise, in 100% of cases, to a rapid-growth subcutaneous solid tumour (L 1210 s.c.).
as §3, §4
ii)—The survival rate of the mice is calculated in the form or a ratio T/C, where: [formula]
This ratio represents the mean survival time of the […] of the batch of treated mice with respect to the mean survival time of the median mouse of the batch of control mice. Thus, a molecule induces a significant (P<0.05) increase in the survival of the animals when the T/C index exceeds 130%. On the other hand, it has a toxic effect when this T/C value is less than 70%. […]

Row | Compound | MTD at 14 days [1] [mg/kg] | growth of the HS-MXT tumours (in words) [2] | Tumour area (expressed as %) [2] [%] | DMT (mg/kg) (Maximum Tolerated Doses) [3] | mean survival time of the median mouse (in words) ([4]; subcutaneous lymphoma L 1210, vs control mice) | T/C (expressed a %) ([4]; survival ratio treated/control, L 1210 s.c., 1.25 mg/kg intraperitoneally, 3 injections per week for 3 weeks from D7) [%]
1 | O=C1c2cccnc2-c2nccc3ccnc1c23 [CRL 8293, 7H-Pyrido[4,3,2-de][1,10]phenanthroline-7-one] | 10 | very highly significant decrease | −45 | – | – | –
2 | O=C1c2ncccc2-c2nccc3ccnc1c23 [CRL 8294, 7H-Pyrido[4,3,2-de][1,7phenanthroline-7-one] | – | very highly significant decrease | −64 | 10 | significant extension | 136
